Test results reported in publication PMC1790865, “Plant Carbohydrate Scavenging through TonB-Dependent Receptors: A Feature Shared by Phytopathogenic and Aquatic Bacteria” (PLoS ONE, 2007).
pKd: −log10 of the molar value.

Assays:
[1] = target: T1, SuxA (XCC3358 TonB-dependent receptor) (Xanthomonas campestris, UniProt Q8P5I3); assay: […]sucrose concentration-dependent uptake in whole wild-type cells (Scatchard, high-affinity phase); uptake lost in suxA deletion mutant and restored by complementation; type: cell-based
T1 construct: gene fyuA

[2] = target: T2, SuxC (XCC3357 inner membrane sugar transporter) (Xanthomonas campestris, UniProt Q8P5I4); assay: […]sucrose concentration-dependent uptake in whole wild-type cells (Scatchard, slow phase); uptake lost in suxC insertion mutant; type: cell-based
T2 construct: gene suc1
T2 sequence (Q8P5I4 entry or part of it): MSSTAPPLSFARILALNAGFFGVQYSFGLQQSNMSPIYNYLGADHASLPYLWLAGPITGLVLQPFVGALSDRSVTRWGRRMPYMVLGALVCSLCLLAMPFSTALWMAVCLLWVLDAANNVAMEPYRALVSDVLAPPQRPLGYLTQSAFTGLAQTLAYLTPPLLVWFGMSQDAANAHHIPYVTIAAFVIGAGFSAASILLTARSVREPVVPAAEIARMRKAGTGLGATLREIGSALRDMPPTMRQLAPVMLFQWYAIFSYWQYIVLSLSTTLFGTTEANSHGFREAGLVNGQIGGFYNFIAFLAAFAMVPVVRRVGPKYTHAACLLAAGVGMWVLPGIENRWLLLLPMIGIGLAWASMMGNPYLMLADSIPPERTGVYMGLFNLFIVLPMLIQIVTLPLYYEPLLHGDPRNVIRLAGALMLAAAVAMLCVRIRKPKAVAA

T1 sequence (Q8P5I3 entry or part of it): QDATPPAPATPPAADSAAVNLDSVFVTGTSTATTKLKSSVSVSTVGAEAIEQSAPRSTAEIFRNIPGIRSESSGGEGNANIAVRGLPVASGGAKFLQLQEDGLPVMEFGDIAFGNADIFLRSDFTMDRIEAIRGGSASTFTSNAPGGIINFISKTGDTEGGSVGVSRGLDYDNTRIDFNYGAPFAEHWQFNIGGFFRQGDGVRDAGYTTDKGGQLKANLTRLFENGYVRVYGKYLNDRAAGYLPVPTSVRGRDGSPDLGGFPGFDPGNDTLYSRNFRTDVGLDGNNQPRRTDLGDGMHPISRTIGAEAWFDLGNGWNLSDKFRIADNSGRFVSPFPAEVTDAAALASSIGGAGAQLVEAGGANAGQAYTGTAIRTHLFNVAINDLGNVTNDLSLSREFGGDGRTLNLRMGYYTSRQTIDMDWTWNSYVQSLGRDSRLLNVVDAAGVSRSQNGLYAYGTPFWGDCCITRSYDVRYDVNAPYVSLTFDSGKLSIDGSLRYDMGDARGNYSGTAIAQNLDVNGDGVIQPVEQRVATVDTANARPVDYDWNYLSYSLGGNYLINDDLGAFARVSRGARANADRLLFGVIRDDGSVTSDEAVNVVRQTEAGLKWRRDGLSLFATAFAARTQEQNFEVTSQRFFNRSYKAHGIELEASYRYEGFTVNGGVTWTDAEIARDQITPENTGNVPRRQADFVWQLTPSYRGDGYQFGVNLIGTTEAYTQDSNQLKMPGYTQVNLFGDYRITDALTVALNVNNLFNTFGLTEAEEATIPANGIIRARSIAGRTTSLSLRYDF

## OC[C@H]1O[C@@](CO)(O[C@H]2O[C@H](CO)[C@@H](O)[C@H](O)[C@H]2O)[C@@H](O)[C@@H]1O [sucrose]
[1]
  pKd: 7.48
[2]
  pKd: 6.23
